Measurements reported in ChEMBL document CHEMBL4346657, “Anticancer activity, dual prooxidant/antioxidant effect and apoptosis induction profile of new bichalcophene-5-carboxamidines” (Eur J Med Chem, 2019).

Key:
RXF 393 = assay: Antiproliferative activity against human RXF393 cells assessed as growth inhibition after 48 hrs by sulforhodamine B assay; type: functional; conditions: RXF 393, 48 h
OVCAR-4 = assay: Antiproliferative activity against human OVCAR4 cells assessed as growth inhibition after 48 hrs by sulforhodamine B assay; type: functional; conditions: OVCAR-4, 48 h
NCI-H23 = assay: Antiproliferative activity against human NCI-H23 cells assessed as growth inhibition after 48 hrs by sulforhodamine B assay; type: functional; conditions: NCI-H23, 48 h
A498 = assay: Antiproliferative activity against human A498 cells assessed as growth inhibition after 48 hrs by sulforhodamine B assay; type: functional; conditions: A498, 48 h
SK-MEL-28 = assay: Antiproliferative activity against human SK-MEL-28 cells assessed as growth inhibition after 48 hrs by sulforhodamine B assay; type: functional; conditions: SK-MEL-28, 48 h
NCI-H522 = assay: Antiproliferative activity against human NCI-H522 cells assessed as growth inhibition after 48 hrs by sulforhodamine B assay; type: functional; conditions: NCI-H522, 48 h
BT-549 = assay: Antiproliferative activity against human BT549 cells assessed as growth inhibition after 48 hrs by sulforhodamine B assay; type: functional; conditions: BT-549, 48 h
SN12C = assay: Antiproliferative activity against human SN12C cells assessed as growth inhibition after 48 hrs by sulforhodamine B assay; type: functional
MDA-MB-231 = assay: Antiproliferative activity against human MDA-MB-231/ATCC cells assessed as growth inhibition after 48 hrs by sulforhodamine B assay; type: functional; conditions: MDA-MB-231, 48 h
M14 = assay: Antiproliferative activity against human M14 cells assessed as growth inhibition after 48 hrs by sulforhodamine B assay; type: functional; conditions: M14, 48 h
Erythrocyte = assay: (§1) Haemolytic activity in human erythrocytes assessed as induction of hemolysis at 2.5 mM after 30 mins relative to H202; type: cell-based; conditions: erythrocyte, 0.5 h, 2500 µM
T47D = assay: Antiproliferative activity against human T47D cells assessed as growth inhibition after 48 hrs by sulforhodamine B assay; type: functional
CAKI-1 = assay: Antiproliferative activity against human CAKI-1 cells assessed as growth inhibition after 48 hrs by sulforhodamine B assay; type: functional; conditions: CAKI-1, 48 h
SR = assay: Antiproliferative activity against human SR cells assessed as growth inhibition after 48 hrs by sulforhodamine B assay; type: functional
MDA-MB-468 = assay: Antiproliferative activity against human MDA-MB-468 cells assessed as growth inhibition after 48 hrs by sulforhodamine B assay; type: functional; conditions: MDA-MB-468, 48 h
NCI-H226 = assay: Antiproliferative activity against human NCI-H226 cells assessed as growth inhibition after 48 hrs by sulforhodamine B assay; type: functional; conditions: NCI-H226, 48 h
TK-10 = assay: Antiproliferative activity against human TK10 cells assessed as growth inhibition after 48 hrs by sulforhodamine B assay; type: functional; conditions: TK-10, 48 h
UACC-257 = assay: Antiproliferative activity against human UACC257 cells assessed as growth inhibition after 48 hrs by sulforhodamine B assay; type: functional; conditions: UACC-257, 48 h
OVCAR-8 = assay: Antiproliferative activity against human OVCAR8 cells assessed as growth inhibition after 48 hrs by sulforhodamine B assay; type: functional; conditions: OVCAR-8, 48 h
HCT-116 [1] = assay: Induction of apoptosis in human HCT116 cells assessed as increase in caspase 3 mRNA expression at 100 nM after 6 hrs hrs by SYBR green dye-based qRT-PCR analysis relative to control; type: functional
[2] = Antioxidant activity assessed as ABTS radical scavenging activity by spectrophotometric method relative to ascorbic acid; type: functional
RPMI-8226 = assay: Antiproliferative activity against human RPMI8226 cells assessed as growth inhibition after 48 hrs by sulforhodamine B assay; type: functional; conditions: RPMI-8226, 48 h
[3] = Antioxidant activity assessed as DPPH radical scavenging activity incubated in dark for 30 mins by spectrophotometric method relative to control; type: functional; parameters: concentration or dose not given beside the values
SW-620 = assay: Antiproliferative activity against human SW620 cells assessed as growth inhibition after 48 hrs by sulforhodamine B assay; type: functional; conditions: SW-620, 48 h
[4] = Haemolytic activity in human erythrocytes assessed as induction of hemolysis at 10 mM after 30 mins relative to H202; type: cell-based, Erythrocyte; conditions: read-out: Activity
K562 = assay: Antiproliferative activity against human K562 cells assessed as growth inhibition after 48 hrs by sulforhodamine B assay; type: functional, cell-based; conditions: K562, 48 h; for IC50: read-out: IC50
MCF7 = assay: Antiproliferative activity against human MCF7 cells assessed as growth inhibition after 48 hrs by sulforhodamine B assay; type: functional; conditions: MCF7, 48 h
[5] = Haemolytic activity in human erythrocytes assessed as induction of hemolysis at 5 mM after 30 mins relative to H202; type: cell-based, Erythrocyte; conditions: read-out: Activity
[6] = Antioxidant activity assessed as ABTS radical scavenging activity by spectrophotometric analysis relative to control; type: functional; parameters: concentration or dose not given beside the values; conditions: dose or concentration not given here
HCT-116 [7] = assay: Induction of apoptosis in human HCT116 cells assessed as increase in p53 mRNA expression at 100 nM after 6 hrs hrs by SYBR green dye-based qRT-PCR analysis relative to control; type: functional
HOP-62 = assay: Antiproliferative activity against human HOP62 cells assessed as growth inhibition after 48 hrs by sulforhodamine B assay; type: functional; conditions: HOP-62, 48 h
SF-539 = assay: Antiproliferative activity against human SF539 cells assessed as growth inhibition after 48 hrs by sulforhodamine B assay; type: functional; conditions: SF-539, 48 h
OVCAR-5 = assay: Antiproliferative activity against human OVCAR5 cells assessed as growth inhibition after 48 hrs by sulforhodamine B assay; type: functional; conditions: OVCAR-5, 48 h
UACC-62 = assay: Antiproliferative activity against human UACC62 cells assessed as growth inhibition after 48 hrs by sulforhodamine B assay; type: functional; conditions: UACC-62, 48 h
HCT-116 [8] = assay: Antiproliferative activity against human HCT116 cells assessed as growth inhibition after 48 hrs by sulforhodamine B assay; type: functional; conditions: HCT-116, 48 h
COLO 205 = assay: Antiproliferative activity against human COLO205 cells assessed as growth inhibition after 48 hrs by sulforhodamine B assay; type: functional; conditions: COLO 205, 48 h
HCT-116 [9] = assay: Reduction in CDK1 mRNA expression in human HCT116 cells at 100 nM after 6 hrs hrs by SYBR green dye-based qRT-PCR analysis relative to control; type: functional; conditions: HCT-116, 6 h
[10] = as §1; type: cell-based, Erythrocyte; conditions: erythrocytes, read-out: Activity

| SMILES | GI50 (RXF 393) | GI50 (OVCAR-4) | GI50 (NCI-H23) | GI50 (A498) | GI50 (SK-MEL-28) | GI50 (NCI-H522) | GI50 (BT-549) | GI50 (SN12C) | GI50 (MDA-MB-231) | GI50 (M14) | GI50 (T47D) | GI50 (CAKI-1) | GI50 (SR) | GI50 (MDA-MB-468) | GI50 (NCI-H226) | GI50 (TK-10) | GI50 (UACC-257) | GI50 (OVCAR-8) | fold change (FC) (HCT-116 [1]) | fold change (FC) [2] | further results |
| --- | --- | --- | --- | --- | --- | --- | --- | --- | --- | --- | --- | --- | --- | --- | --- | --- | --- | --- | --- | --- | --- |
| N=C(N)c1ccc(-c2ccc(-c3ccc4ccccc4c3)s2)s1 | 1.93 µM | 1.91 µM | 2.95 µM | 1.7 µM | 2.25 µM | 1.96 µM | 17.6 µM | 1.87 µM | 1.85 µM | 2.45 µM | 1.95 µM | 3.11 µM | 1.05 µM | 2.38 µM | 33.6 µM | 2.23 µM | 16.1 µM | 2.27 µM | 2.59 | 0.8 | Activity (Erythrocyte): Non-Toxic; GI50 (RPMI-8226): 2.3 µM; inhibition [3]: 54.6%; GI50 (SW-620): 1.91 µM; hemolysis at 0.5 h, 10000 µM [4]: 21.1%; IC50 (K562): 1.53 µM; GI50 (MCF7): 1.75 µM; hemolysis at 0.5 h, 5000 µM [5]: 13%; inhibition [6]: 72.8%; fold change (FC) (HCT-116 [7]): 1; GI50 (HOP-62): 2.08 µM; GI50 (SF-539): 1.97 µM; GI50 (OVCAR-5): 1.81 µM; GI50 (UACC-62): 2.1 µM; GI50 (HCT-116 [8]): 1.77 µM; GI50 (COLO 205): 1.63 µM |
| N=C(N)c1ccc(-c2ccc(-c3cc(Cl)cc(Cl)c3)o2)o1 | 1.79 µM | 1.85 µM | 1.67 µM | 1.61 µM | 1.73 µM | 1.73 µM | 1.97 µM | 1.97 µM | 1.85 µM | 1.86 µM | 1.72 µM | 1.7 µM | 0.63 µM | 2.23 µM | 2.2 µM | 1.86 µM | 2.05 µM | 2.23 µM | 2.81 | 0.2 | inhibition at 0.1 µM (HCT-116 [9]): 46%; hemolysis at 0.5 h, 2500 µM [10]: 11.1%; GI50 (RPMI-8226): 2.13 µM; inhibition [3]: 15.7%; GI50 (SW-620): 1.68 µM; hemolysis at 0.5 h, 10000 µM [4]: 89.3%; IC50 (K562): 1.3 µM; GI50 (MCF7): 1.35 µM; hemolysis at 0.5 h, 5000 µM [5]: 57.1%; inhibition [6]: 19%; fold change (FC) (HCT-116 [7]): 1.99; GI50 (HOP-62): 1.89 µM; GI50 (SF-539): 1.72 µM; GI50 (OVCAR-5): 1.81 µM; GI50 (UACC-62): 1.94 µM; GI50 (HCT-116 [8]): 1.21 µM; GI50 (COLO 205): 1.31 µM |
| COc1cc(OC)cc(-c2ccc(-c3ccc(C(=N)N)o3)o2)c1 | 1.93 µM | 3.51 µM | 9.25 µM | 2.89 µM | 1.82 µM | 2.3 µM | 6.91 µM | 2.38 µM | 2.35 µM | 2.07 µM | 2.08 µM | 4.33 µM | 1.88 µM | 2.41 µM | 2.26 µM | 13.4 µM | 2.41 µM | 3.75 µM | 4.1 | 0.4 | Activity (Erythrocyte): Non-Toxic; GI50 (RPMI-8226): 2.25 µM; inhibition [3]: 31%; GI50 (SW-620): 1.88 µM; hemolysis at 0.5 h, 10000 µM [4]: 19.3%; GI50 (K562): 1.98 µM; IC50 (K562): 1.89 µM; GI50 (MCF7): 1.8 µM; hemolysis at 0.5 h, 5000 µM [5]: 7.5%; inhibition [6]: 36%; fold change (FC) (HCT-116 [7]): 0.9; GI50 (HOP-62): 5.65 µM; GI50 (SF-539): 1.83 µM; GI50 (OVCAR-5): 2.34 µM; GI50 (UACC-62): 1.98 µM; GI50 (HCT-116 [8]): 2.51 µM; GI50 (COLO 205): 1.84 µM |
